Experimental data as given in US20100035888A1, “Diaryl Urea for Treating Pulmonary Hypertension” (Bater Healthcare AG, priority 2005, published 2010).

Tested on: monocrotaline-treated rats with pulmonary hypertension
Experiment: Pulmonary artery pressure in monocrotaline treated rats (MCT-induced pulmonary arterial hypertension)
Format: in vivo, rat
Conditions: 3 mg/kg by gavage once daily from day 14 to day 28 after MCT
Experimental: The effects of the compounds and drug combinations according to the invention are tested in vitro on isolated rat pulmonary arteries and in vivo in monocrotaline-treated rats with pulmonary hypertension.
Male Sprague Dawley rats (250-300 g) are treated with monocrotaline 60 mg/kg subcutanously (=day 0). On day 14 after monocrotaline injection treatment the compound/combination to be tested is administered. On day 28 hemodynamic parameters, i.e. right ventricular pressure, systemic blood pressure, heart rate, arterial and venous oxygen saturation are measured and compared with untreated control animals.
Monocrotaline (MCT) treated rats are randomized to receive 4{4-[3-(4-chloro-3-trifluoromethylphenyl)-ureido]-3-fluorophenoxy}-pyridine-2-carboxylic acid methylamide 3 mg/kg or vehicle by gavage once daily after the onset of moderate pulmonary arterial hypertension starting 14 days after the injection of MCT until day 28. […]

With CNC(=O)c1cc(Oc2ccc(NC(=O)Nc3ccc(Cl)c(C(F)(F)F)c3)c(F)c2)ccn1 [BAY73-4506, 4{4-[3-(4-chloro-3-trifluoromethylphenyl)-ureido]-3-fluorophenoxy}-pyridine-2-carboxylic acid methylamide] the mortality rate (control 0%, placebo 40%) was 0% and the “right ventricle/left ventricle+septum ratio (right ventricular hypertrophy)” value (mean±SEM, control 0.25±0.01, placebo 0.62±0.02) was 0.28±0.01.
